Laboratory results: US20260001889A1, “COMPOSITIONS USEFUL FOR MODULATING SPLICING” (Skyhawk Therapeutics, Inc., priority 2022, published 2026)

How the values were obtained:
ATXN3-HiBiT protein = test: ATXN3 Total Protein Assay (Kelly-ATXN3-HiBiT luminescence); type: cell-based; details: Kelly-ATXN3-HiBiT cells, 48 h after addition of compound
Summary of the method: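 Endogenous ATXN3-HiBiT protein in knock-in Kelly neuroblastoma cells measured by lytic HiBiT luminescence 48 h post-compound (added 24 h after seeding 2000 cells/well). Values are fold changes relative to DMSO, with viability from a parallel CellTiter-Glo plate.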

[1] = tested on: ATXN3 transcripts containing exon 4; test: ATXN3 Quantitative Splicing Assay (qPCR, E4E5 primers/probe); type: cell-based; details: Homo sapiens, SK-N-MC cells, compounds for 24 h
Summary of the method: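 Exon 4-containing ATXN3 transcripts are quantified by TaqMan qPCR (E4E5 primers/probe) on cell-lysate cDNA, with total ATXN3 from the E8E9 set. Source cells: human neuroblastoma SK-N-MC, exposed for 24 h to compound at 30 μM down to 0.6 nM.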

total ATXN3 protein = test: ATXN3 Total Protein Assay (Mesoscale Discovery, SK-N-MC cells); type: cell-based, Human; details: incubation for 48 hours, MSD assay
Summary of the method: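 Readout: MSD electrochemiluminescence immunoassay of lysates, calibrated with recombinant ATXN3 and using mouse/rabbit anti-ATXN3 antibody pair. Cells (SK-N-MC, human) were exposed for 48 h to compound doses between 30 μM and 0.6 nM.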

Row | EC50 (ATXN3-HiBiT protein) [µM] | IC50 [1] [µM] | IC50 (total ATXN3 protein) [µM] | SMILES
1 | 0.501 to 5 | 0.501 to 5 | 0.501 to 5 | C[C@@H](F)[C@H](N)Cc1oc2c(NCc3nccs3)cc(Cl)nc2c1Br [Compound 91, 2-[(2R,3R)-2-amino-3-fluorobutyl]-3-bromo-5-chloro-7-{[(1,3-thiazol-2-yl)methyl]amino}-1-oxa-4-azaindene]
2 | 0.101 to 0.5 | 0.101 to 0.5 | 0.101 to 0.5 | C[C@H](F)[C@H](N)Cc1oc2c(NCc3ccccc3)cc(Cl)nc2c1Br [Compound 92, 2-[(2R,3S)-2-amino-3-fluorobutyl]-7-benzylamino-3-bromo-5-chloro-1-oxa-4-azaindene]
3 | 0.501 to 5 | 0.501 to 5 | 0.501 to 5 | C[C@@H](F)[C@H](N)Cc1oc2c(NCc3ccccc3)cc(Cl)nc2c1Br [Compound 93, 2-[(2R,3R)-2-amino-3-fluorobutyl]-7-benzylamino-3-bromo-5-chloro-1-oxa-4-azaindene]
4 | 0.101 to 0.5 | 0.101 to 0.5 | 0.101 to 0.5 | C[C@H](F)[C@H](N)Cc1oc2c(NCc3ccc(F)s3)cc(Cl)nc2c1Br [Compound 94, 2-[(2R,3S)-2-amino-3-fluorobutyl]-3-bromo-5-chloro-7-{[(5-fluoro-2-thienyl)methyl]amino}-1-oxa-4-azaindene]
5 | 0.501 to 5 | 0.501 to 5 | 0.501 to 5 | C[C@@H](F)[C@H](N)Cc1oc2c(NCc3ccc(F)s3)cc(Cl)nc2c1Br [Compound 95, 2-[(2R,3R)-2-amino-3-fluorobutyl]-3-bromo-5-chloro-7-{[(5-fluoro-2-thienyl)methyl]amino}-1-oxa-4-azaindene]
6 | 0.101 to 0.5 | 0.101 to 0.5 | 0.101 to 0.5 | C[C@H](F)[C@H](N)Cc1oc2c(NCc3sccc3F)cc(Cl)nc2c1Br [Compound 96, 2-[(2R,3S)-2-amino-3-fluorobutyl]-3-bromo-5-chloro-7-{[(3-fluoro-2-thienyl)methyl]amino}-1-oxa-4-azaindene]
7 | 0.501 to 5 | 0.501 to 5 | 0.501 to 5 | C[C@@H](F)[C@H](N)Cc1oc2c(NCc3sccc3F)cc(Cl)nc2c1Br [Compound 97, 2-[(2R,3R)-2-amino-3-fluorobutyl]-3-bromo-5-chloro-7-{[(3-fluoro-2-thienyl)methyl]amino}-1-oxa-4-azaindene]
8 | 0.501 to 5 | 0.501 to 5 | 0.501 to 5 | N[C@H](Cc1oc2c(NCc3cccs3)cc(Cl)nc2c1Br)C1COC1 [Compound 98, 2-[(R)-2-amino-2-(3-oxetanyl)ethyl]-3-bromo-5-chloro-7-thenylamino-1-oxa-4-azaindene]
9 | 0.101 to 0.5 | 0.101 to 0.5 | 0.101 to 0.5 | C[C@H](F)[C@H](N)Cc1oc2c(NCc3cccs3)cc(C#N)nc2c1Br [Compound 103, 2-[(2R,3S)-2-amino-3-fluorobutyl]-3-bromo-7-thenylamino-1-oxa-4-aza-5-indenecarbonitrile]
10 | 0.501 to 5 | 0.101 to 0.5 | 0.501 to 5 | Cc1c(C[C@@H](N)[C@H](C)F)oc2c(NCc3ccc(F)s3)cc(Cl)nc12 [Compound 105, 2-[(2R,3S)-2-amino-3-fluorobutyl]-5-chloro-7-{[(5-fluoro-2-thienyl)methyl]amino}-3-methyl-1-oxa-4-azaindene]
11 | 0.101 to 0.5 | 0.101 to 0.5 | 0.101 to 0.5 | Cc1c(C[C@@H](N)[C@H](C)F)oc2c(NCc3nccs3)cc(Cl)nc12 [Compound 106, 2-[(2R,3S)-2-amino-3-fluorobutyl]-5-chloro-3-methyl-7-{[(1,3-thiazol-2-yl)methyl]amino}-1-oxa-4-azaindene]
12 | 0.101 to 0.5 | 0.101 to 0.5 | 0.501 to 5 | Cc1c(C[C@@H](N)[C@H](C)F)oc2c(NCc3ccccc3)cc(Cl)nc12 [Compound 107, 2-[(2R,3S)-2-amino-3-fluorobutyl]-7-benzylamino-5-chloro-3-methyl-1-oxa-4-azaindene]
